Source: patent publication US11065251B2, “PAK1 inhibitors and uses thereof” (Albert Einstein College of Medicine, priority 2016, dated 2021)
pIC50: −log10 of the molar value. Read-outs that look alike come from different tables or passages of the source. Each block holds one molecule with its values, some of them ahead of it.

Experiments:
larger kinase panel = experiment: Selectivity against a larger kinase panel; assay type: binding; details: in words
[1] = Pharmacokinetic (PK) assessment in rats; assay type: in vivo; details: for Fabs, % (from AUCINF) / Fabs, % (from AUClast): PO 10 mg/kg versus IV 2 mg/kg; for C0 / Cmax / MRT inf / Tmax / clearance / MRT last / half-life / CL/F / Vd/F / AUC(0-inf) / AUC(0-t) / Vd: rat, plasma; for MRT last: read-out: MRTlast; for half-life: read-out: T ½ (converted); for Vd/F: read-out: Vz/F
PAK1 = PAK1 (Homo sapiens, UniProt Q13153); experiment: PAK1 IC50 determination, Z'-LYTE kinase assay; assay type: biochemical; details: [ATP]=10×Km; [PAK1]=1 ng; read-out: IC50 against PAK1
PAK1, sequence (Q13153 whole entry): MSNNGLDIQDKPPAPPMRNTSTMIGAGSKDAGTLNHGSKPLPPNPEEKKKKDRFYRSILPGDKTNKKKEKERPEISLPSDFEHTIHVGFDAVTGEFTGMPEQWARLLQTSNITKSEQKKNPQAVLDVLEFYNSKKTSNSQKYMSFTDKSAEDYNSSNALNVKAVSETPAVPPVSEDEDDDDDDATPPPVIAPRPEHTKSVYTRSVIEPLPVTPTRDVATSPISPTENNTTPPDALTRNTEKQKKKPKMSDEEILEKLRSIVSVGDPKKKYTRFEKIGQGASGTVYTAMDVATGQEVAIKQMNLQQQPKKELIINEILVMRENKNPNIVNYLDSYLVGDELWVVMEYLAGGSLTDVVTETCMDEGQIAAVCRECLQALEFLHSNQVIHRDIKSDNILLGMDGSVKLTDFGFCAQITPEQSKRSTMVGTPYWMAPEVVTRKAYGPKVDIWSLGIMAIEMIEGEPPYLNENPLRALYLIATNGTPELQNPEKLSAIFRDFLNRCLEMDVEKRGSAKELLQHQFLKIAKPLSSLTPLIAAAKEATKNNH
Description: Protocol for determining IC50 Values for test compounds at [ATP]=10×Km; [PAK1]=1 ng
Add 2 ml 5× Kinase Buffer to 8 ml water to prepare […] of Kinase Buffer A.
• Thaw the concentrated stock of test compound at room temperature. • 2.1. Add 10 μl of 100% DMSO to row A, columns 2-11 (wells A2-A11) in a 96-well assay plate (non-binding surface). To well A1, add 15 μl of the concentrated stock of test compound. This will be the highest concentration of test compound in a 10-point titration curve. Use a concentration that is 100× the final desired 1× concentration per 10 μl kinase reaction. For example, if the final 1× concentration of 100 μM is desired for the highest concentration of test compound in the 10 point titration curve, add 15 μl of 10 mM test compound to well A1. • 2.2. Titrate the 100× test compound three-fold across the assay plate from well A1 to well A10. To perform this threefold titration, transfer 5 μl of the 100× test compound from well A1 to the 10 μl of 100% DMSO in well A2. Repeat for wells A2-A10. Discard the final 5 μl from well A10 so that all wells contain 10 μl. […] This completes the 10-point three-fold titration of test compound at 100× concentration. • 2.3. Transfer a 2 μl aliquot of the 100× test compound titration series from each well in row A of the 96-well assay plate (wells A1-A12) to row B (wells B1-B12). Add 48 μl of complete kinase reaction buffer to each well in row B to dilute the 100× three-fold titration series of test compound to 4× (the DMSO will also be diluted, to 4%). • 2.4. Transfer 2.5 μl of the 4× concentrated three-fold titration series of test compound from row B of the 96-well assay plates to quadruplicate wells of a 384-well assay plate. Each well in columns 21-24 should contain 2.5 μl of 4% DMSO (no compound) in complete kinase reaction buffer. This 2.5 μl addition of 4× test compound in 4% DMSO produces a 1× concentration of test compound in 1% DMSO for a 10 μl kinase reaction. • 2.5. Dispense 2.5 μl of complete kinase reaction buffer to each well in columns 23-24 of the 384-well assay plate.
• 1. Prepare 500 μl of 4 μM Z′-LYTE® Phospho-peptide by adding 2 μl of 1 mM Z′-LYTE® Phospho-peptide to 498 μl of complete kinase reaction buffer. • 2. Dispense 5 μl of the 4 μM Z′-LYTE® Phospho-peptide (2×) to each well in column 24 of the 384-well assay plate. • 3. Prepare 1000 μl of 4 μM Z′-LYTE® Peptide Substrate (2×)/2× kinase solution in complete kinase reaction buffer. If necessary, prepare an intermediate dilution of the kinase in complete kinase reaction buffer before preparing the Z′-LYTE™ Peptide Substrate (2×)/2× kinase solution. Use the appropriate 2× kinase concentration in the assay to phosphorylate 20-50% of the 0% inhibition controls at the ATP concentration desired. • 4. […]

[2] = system: other PAK family members (PAK2, PAK3, PAK4, PAK6, PAK7); experiment: Inhibitory activity against other PAK family members; assay type: biochemical; details: in words
Description: A cell-based small molecule screening with 50,024 compounds was performed based on AML cell lines that grow in a PAK1-dependent manner, which has been previously described (Pandolfi et al., 2015). This was followed by single point PAK1 enzymatic activity screening against 360 compounds. Forty-six identified compounds that scored positive in this assay were subjected to enzymatic activity assays against other PAK family kinases including PAK2, PAK3, PAK4, PAK6, and PAK7. […] Those compounds were studied in further detail and key biochemical, pharmacokinetic, and structure-activity characteristics were determined.

[3] = Microsomal stability, mouse (MLM); assay type: in vitro ADME; details: for microsomal CLint / half-life: liver microsomes; for half-life: read-out: t½; for ER / CLh: mouse microsomes; for CLh: in mL/min/kg (unit assumed)
[4] = Microsomal stability, human (HLM); assay type: in vitro ADME; details: human microsomes; for CLh: in mL/min/kg (unit assumed); for microsomal CLint / half-life: liver microsomes; for half-life: read-out: t½
[5] = Microsomal stability, rat (RLM); assay type: in vitro ADME; details: rat microsomes; for microsomal CLint / half-life: liver microsomes; for half-life: read-out: t½; for CLh: in mL/min/kg (unit assumed)
[6] = iv, 2 mg/kg, IV, 2 mg/kg, mean, read-out: AUCINF
[7] = iv, 2 mg/kg, IV, 2 mg/kg, mean, read-out: AUClast
[8] = iv, 2 mg/kg, IV, 2 mg/kg, mean, read-out: Vss
[9] = iv, 2 mg/kg, IV, 2 mg/kg, mean, read-out: Vz
[10] = iv, 2 mg/kg, IV, dose 2 mg/kg, summary section, no unit printed there, read-out: AUCINF, IV plasma
[11] = iv, 2 mg/kg, IV, dose 2 mg/kg, summary section, no unit printed there, read-out: AUClast, IV plasma
[12] = po, 10 mg/kg, PO, 10 mg/kg, mean, read-out: AUCINF
[13] = po, 10 mg/kg, PO, 10 mg/kg, mean, read-out: AUClast
[14] = po, 10 mg/kg, PO, dose 10 mg/kg, summary section, no unit printed there, read-out: AUCINF, PO plasma
[15] = po, 10 mg/kg, PO, dose 10 mg/kg, summary section, no unit printed there, read-out: AUClast, PO plasma

- inhibition against a larger kinase panel (larger kinase panel): no significant inhibition
- K el ([1]; IV, 2 mg/kg, mean): 0.42 h⁻¹
- Fabs, % (from AUCINF) [1]: 9.4%
- Fabs, % (from AUClast) [1]: 9.1%
- K el ([1]; PO, 10 mg/kg, mean): 0.37 h⁻¹
- C0 ([1]; IV, 2 mg/kg, mean): 1010 ng/mL
- Cmax ([1]; IV, 2 mg/kg, mean): 740 ng/mL
- MRT inf ([1]; IV, 2 mg/kg, mean): 1.69 h
- Tmax ([1]; IV, 2 mg/kg, mean): 4.8 min
- clearance ([1]; IV, 2 mg/kg, mean): 46.8 mL/min/kg
- MRT last ([1]; IV, 2 mg/kg, mean): 1.46 h
- half-life ([1]; IV, 2 mg/kg, mean): 99.6 min
- CL/F ([1]; PO, 10 mg/kg, mean): 525 mL/min/kg
- Cmax ([1]; PO, 10 mg/kg, mean): 85.7 ng/mL
- MRT inf ([1]; PO, 10 mg/kg, mean): 3.01 h
- Tmax ([1]; PO, 10 mg/kg, mean): 70.2 min
- MRT last ([1]; PO, 10 mg/kg, mean): 2.52 h
- half-life ([1]; PO, 10 mg/kg, mean): 112 min
- Vd/F ([1]; PO, 10 mg/kg, mean): 84.8 L/kg
- AUC(0-inf) [1, 6]: 714 ng·h/mL
- AUC(0-t) [1, 7]: 695 ng·h/mL
- Vd [1, 8]: 4.77 L/kg
- Vd [1, 9]: 6.74 L/kg
- AUC(0-inf) [1, 10]: 714 ng·h/mL
- AUC(0-t) [1, 11]: 695 ng·h/mL
- AUC(0-inf) [1, 12]: 334 ng·h/mL
- AUC(0-t) [1, 13]: 315 ng·h/mL
- AUC(0-inf) [1, 14]: 334 ng·h/mL
- AUC(0-t) [1, 15]: 315 ng·h/mL
- pIC50 (PAK1): 5.30
- microsomal CLint [3]: 243 µL/min/mg
- half-life [3]: 11.4 min
- ER [3]: 0.91
- CLh [3]: 82.27
- ER [4]: 0.83
- CLh [4]: 18.11
- microsomal CLint [4]: 114 µL/min/mg
- half-life [4]: 24.3 min
- microsomal CLint [5]: 159 µL/min/mg
- half-life [5]: 17.4 min
- ER [5]: 0.84
- CLh [5]: 46.14
Structure (SMILES): CCC1CCCCN1c1cc(C)nc2nc(-c3ccc(C)cc3)nn12 (stereo not drawn) [Compound D245-0091, 7-(2-Ethylpiperidin-1-yl)-5-methyl-2-(p-tolyl)-[1,2,4]triazolo[1,5-a]pyrimidine]
- inhibitory activity against any of the other PAK family members [2]: no significant inhibitory activity

- inhibition against a larger kinase panel (larger kinase panel): no significant inhibition
- K el ([1]; IV, 2 mg/kg, mean): 0.07 h⁻¹
- C0 ([1]; IV, 2 mg/kg, mean): 71.7 ng/mL
- Cmax ([1]; IV, 2 mg/kg, mean): 53.4 ng/mL
- MRT inf ([1]; IV, 2 mg/kg, mean): 12.3 h
- Tmax ([1]; IV, 2 mg/kg, mean): 4.8 min
- clearance ([1]; IV, 2 mg/kg, mean): 214 mL/min/kg
- MRT last ([1]; IV, 2 mg/kg, mean): 6.51 h
- half-life ([1]; IV, 2 mg/kg, mean): 636 min
- Cmax ([1]; PO, 10 mg/kg, mean): 17.4 ng/mL
- Tmax ([1]; PO, 10 mg/kg, mean): 200 min
- MRT last ([1]; PO, 10 mg/kg, mean): 3.97 h
- AUC(0-inf) [1, 6]: 156 ng·h/mL
- AUC(0-t) [1, 7]: 129 ng·h/mL
- Vd [1, 8]: 158 L/kg
- Vd [1, 9]: 197 L/kg
- AUC(0-t) [1, 13]: 92.7 ng·h/mL
- pIC50 (PAK1): 6.33
- microsomal CLint [3]: 664 µL/min/mg
- half-life [3]: 4.18 min
- ER [3]: 0.97
- CLh [3]: 87.00
- ER [4]: 0.89
- CLh [4]: 19.24
- microsomal CLint [4]: 199 µL/min/mg
- half-life [4]: 13.9 min
- microsomal CLint [5]: 1830 µL/min/mg
- half-life [5]: 1.51 min
- ER [5]: 0.98
- CLh [5]: 54.10
Structure (SMILES): CSc1ccc(-c2nc3cccc(C)n3c2Nc2ccc3c(c2)OCCO3)cc1 [Compound C273-0489]
- inhibitory activity against any of the other PAK family members [2]: no significant inhibitory activity

- inhibition against a larger kinase panel (larger kinase panel): no significant inhibition
- K el ([1]; IV, 2 mg/kg, mean): 3.03 h⁻¹
- Fabs, % (from AUCINF) [1]: 3.8%
- Fabs, % (from AUClast) [1]: 3.8%
- K el ([1]; PO, 10 mg/kg, mean): 1.05 h⁻¹
- C0 ([1]; IV, 2 mg/kg, mean): 3150 ng/mL
- Cmax ([1]; IV, 2 mg/kg, mean): 2210 ng/mL
- MRT inf ([1]; IV, 2 mg/kg, mean): 0.3 h
- Tmax ([1]; IV, 2 mg/kg, mean): 4.8 min
- clearance ([1]; IV, 2 mg/kg, mean): 36.7 mL/min/kg
- MRT last ([1]; IV, 2 mg/kg, mean): 0.29 h
- half-life ([1]; IV, 2 mg/kg, mean): 13.8 min
- CL/F ([1]; PO, 10 mg/kg, mean): 974 mL/min/kg
- Cmax ([1]; PO, 10 mg/kg, mean): 202 ng/mL
- MRT inf ([1]; PO, 10 mg/kg, mean): 0.84 h
- Tmax ([1]; PO, 10 mg/kg, mean): 19.8 min
- MRT last ([1]; PO, 10 mg/kg, mean): 0.75 h
- half-life ([1]; PO, 10 mg/kg, mean): 41.4 min
- Vd/F ([1]; PO, 10 mg/kg, mean): 56.2 L/kg
- AUC(0-inf) [1, 6]: 911 ng·h/mL
- AUC(0-t) [1, 7]: 909 ng·h/mL
- Vd [1, 8]: 0.65 L/kg
- Vd [1, 9]: 0.73 L/kg
- AUC(0-inf) [1, 10]: 911 ng·h/mL
- AUC(0-t) [1, 11]: 909 ng·h/mL
- AUC(0-inf) [1, 12]: 175 ng·h/mL
- AUC(0-t) [1, 13]: 171 ng·h/mL
- AUC(0-inf) [1, 14]: 175 ng·h/mL
- AUC(0-t) [1, 15]: 171 ng·h/mL
- pIC50 (PAK1): 6.05
- microsomal CLint [3]: 44.4 µL/min/mg
- half-life [3]: 62.4 min
- ER [3]: 0.66
- CLh [3]: 59.41
- ER [4]: 0.66
- CLh [4]: 14.31
- microsomal CLint [4]: 38.8 µL/min/mg
- half-life [4]: 71.4 min
- microsomal CLint [5]: 34 µL/min/mg
- half-life [5]: 81.5 min
- ER [5]: 0.53
- CLh [5]: 28.97
Structure (SMILES): COc1cccc(-c2oncc2CN2CCN(C(C)=O)CC2)c1 [Compound T813-0242, 1-(4-((5-(3-Methoxyphenyl)isoxazol-4-yl)methyl)piperazin-1-yl)ethanone]
- inhibitory activity against any of the other PAK family members [2]: no significant inhibitory activity
